{"source": "ChEMBL document CHEMBL1125108", "about": "(J Med Chem, 1990)", "format_in_all_cases": "tissue-based", "key": {"[1]": {"molecular_target": "Muscarinic acetylcholine receptor", "assay": "Binding affinity was determined against Muscarinic acetylcholine receptor using [3H]QNB as radioligand in rat brain."}, "[2]": {"molecular_target": "D(2) dopamine receptor (Rattus norvegicus, UniProt P61169)", "sequence (P61169 whole entry)": "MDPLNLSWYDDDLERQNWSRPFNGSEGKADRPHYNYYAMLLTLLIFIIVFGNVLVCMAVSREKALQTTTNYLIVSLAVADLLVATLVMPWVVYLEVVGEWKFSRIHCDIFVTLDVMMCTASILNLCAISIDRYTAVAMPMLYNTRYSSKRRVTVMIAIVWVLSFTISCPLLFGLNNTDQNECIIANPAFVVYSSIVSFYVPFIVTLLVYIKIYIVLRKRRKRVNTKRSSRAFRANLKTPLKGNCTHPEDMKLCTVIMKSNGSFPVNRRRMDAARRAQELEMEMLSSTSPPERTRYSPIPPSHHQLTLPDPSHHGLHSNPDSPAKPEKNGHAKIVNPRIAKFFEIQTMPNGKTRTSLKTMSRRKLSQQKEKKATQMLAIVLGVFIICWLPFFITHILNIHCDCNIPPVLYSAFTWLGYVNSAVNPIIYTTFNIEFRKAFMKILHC", "assay": "Binding affinity for Dopamine receptor D2 using [3H]spiperone in rat brain"}, "[3]": {"molecular_target": "D(1A) dopamine receptor (Rattus norvegicus, UniProt P18901)", "sequence (P18901 whole entry)": "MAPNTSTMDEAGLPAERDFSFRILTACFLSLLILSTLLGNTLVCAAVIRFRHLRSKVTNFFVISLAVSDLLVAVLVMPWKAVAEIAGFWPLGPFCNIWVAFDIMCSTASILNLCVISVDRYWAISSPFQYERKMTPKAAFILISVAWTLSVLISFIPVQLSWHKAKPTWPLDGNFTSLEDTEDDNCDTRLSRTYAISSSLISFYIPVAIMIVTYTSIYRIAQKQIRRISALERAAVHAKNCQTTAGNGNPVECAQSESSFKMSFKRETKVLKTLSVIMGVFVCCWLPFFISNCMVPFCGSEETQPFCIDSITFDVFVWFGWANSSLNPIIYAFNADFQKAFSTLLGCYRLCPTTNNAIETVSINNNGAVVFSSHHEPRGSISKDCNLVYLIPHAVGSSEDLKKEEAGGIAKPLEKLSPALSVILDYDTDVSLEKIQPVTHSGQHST", "assay": "Binding affinity against Dopamine receptor D1 using […] in rat brain"}}, "data": [{"smiles": "CC(C)=C1c2ccc(Cl)cc2C=C(N2CCN(C)CC2)c2ccccc21", "values": [{"measurement": "IC50", "setting": "[1]", "value": 1750, "unit": "nM"}, {"measurement": "IC50", "setting": "[2]", "value": 5000, "unit": "nM"}, {"measurement": "IC50", "setting": "[3]", "value": 443, "unit": "nM"}]}, {"smiles": "C=C1c2ccc(Cl)cc2C=C(N2CCN(C)CC2)c2ccccc21", "values": [{"measurement": "IC50", "setting": "[1]", "value": 248, "unit": "nM"}, {"measurement": "IC50", "setting": "[2]", "value": 300, "unit": "nM"}, {"measurement": "IC50", "setting": "[3]", "value": 51, "unit": "nM"}]}, {"smiles": "C=C1c2ccccc2C=C(N2CCN(C)CC2)c2cc(Cl)ccc21", "values": [{"measurement": "IC50", "setting": "[1]", "value": 330, "unit": "nM"}, {"measurement": "IC50", "setting": "[2]", "value": 27, "unit": "nM"}, {"measurement": "IC50", "setting": "[3]", "value": 8, "unit": "nM"}]}, {"smiles": "CC(C)=C1c2ccccc2C=C(N2CCN(C)CC2)c2cc(Cl)ccc21", "values": [{"measurement": "IC50", "setting": "[1]", "value": 297, "unit": "nM"}, {"measurement": "IC50", "setting": "[2]", "value": "> 10000", "unit": "nM"}, {"measurement": "IC50", "setting": "[3]", "value": 133, "unit": "nM"}]}, {"smiles": "CN1CCN(C2=Nc3ccccc3Nc3ccccc32)CC1", "values": [{"measurement": "IC50", "setting": "[2]", "value": "> 10000", "unit": "nM"}]}, {"smiles": "CC(C)=C1c2ccccc2C=C(N2CCN(C)CC2)c2ccccc21", "values": [{"measurement": "IC50", "setting": "[1]", "value": 415, "unit": "nM"}, {"measurement": "IC50", "setting": "[2]", "value": 4750, "unit": "nM"}, {"measurement": "IC50", "setting": "[3]", "value": 540, "unit": "nM"}]}, {"smiles": "C=C1c2ccccc2C=C(N2CCN(C)CC2)c2ccccc21", "values": [{"measurement": "IC50", "setting": "[1]", "value": 150, "unit": "nM"}, {"measurement": "IC50", "setting": "[2]", "value": 305, "unit": "nM"}, {"measurement": "IC50", "setting": "[3]", "value": 21, "unit": "nM"}]}]}
